Inconclusive results and toxic doses are left out. No stated cut-off is given here; in the data, active means T/C of 150% or more; inactive means T/C below 125%.
Test system: L1210 leukemia ip in BDF1 mice, survival T/C
Assay: NCI In Vivo Anticancer Drug Screen. Data for tumor model L1210 Leukemia (intraperitoneal) in B6D2F1 (BDF1) mice
Settings: endpoint: mean survival time, higher = longer survival
Procedure, shortened: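 Tumor was transplanted into mice, which were then dosed with test compound or vehicle alone. Survival was recorded for each group, and the treated figure was expressed relative to the control figure.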

[1] = dose: 6.25 mg/kg/injection, schedule: Q01DX009 (ip), vehicle: Klucel (hydroxypropylcellulose) (HPC)
[2] = dose: 12.5 mg/kg/injection, schedule: Q01DX009 (ip), vehicle: Klucel (hydroxypropylcellulose) (HPC)
[3] = dose: 25.0 mg/kg/injection, schedule: Q01DX009 (ip), vehicle: Klucel (hydroxypropylcellulose) (HPC)
[4] = dose: 50.0 mg/kg/injection, schedule: Q01DX009 (ip), vehicle: Klucel (hydroxypropylcellulose) (HPC)
[5] = dose: 100.0 mg/kg/injection, schedule: Q04DX002 (ip), vehicle: Klucel (hydroxypropylcellulose) (HPC)
[6] = dose: 200.0 mg/kg/injection, schedule: Q04DX002 (ip), vehicle: Klucel (hydroxypropylcellulose) (HPC)
[7] = dose: 400.0 mg/kg/injection, schedule: Q04DX002 (ip), vehicle: Klucel (hydroxypropylcellulose) (HPC)
[8] = dose: 100.0 mg/kg/injection, schedule: Q04DX003 (ip), vehicle: Klucel (hydroxypropylcellulose) (HPC)
[9] = dose: 100.0 mg/kg/injection, schedule: Q01DX009 (ip), vehicle: Klucel (hydroxypropylcellulose) (HPC)

Measured: T/C

O=C(CCl)Nc1ccccc1S(=O)(=O)F
inactive: dose: 18.75 mg/kg/injection, schedule: Q01DX009 (ip), vehicle: carboxymethylcellulose (CMC) 91 % of control | dose: 37.5 mg/kg/injection, schedule: Q01DX009 (ip), vehicle: carboxymethylcellulose (CMC) 92 % of control | dose: 75.0 mg/kg/injection, schedule: Q01DX001 (ip), vehicle: carboxymethylcellulose (CMC) 98 % of control | dose: 75.0 mg/kg/injection, schedule: Q04DX003 (ip), vehicle: carboxymethylcellulose (CMC) 94 % of control | dose: 150.0 mg/kg/injection, schedule: Q01DX001 (ip), vehicle: carboxymethylcellulose (CMC) 93 % of control | dose: 150.0 mg/kg/injection, schedule: Q04DX003 (ip), vehicle: carboxymethylcellulose (CMC) 88 % of control | dose: 300.0 mg/kg/injection, schedule: Q01DX001 (ip), vehicle: carboxymethylcellulose (CMC) 97 % of control

O=c1s[se]c2ccccc12
inactive: dose: 1.56 mg/kg/injection, schedule: Q01DX009 (ip), vehicle: Klucel (hydroxypropylcellulose) (HPC) 100 % of control | dose: 3.12 mg/kg/injection, schedule: Q01DX009 (ip), vehicle: Klucel (hydroxypropylcellulose) (HPC) 100 % of control | [1] 107 % of control | [2] 111 % of control | [3] 102 % of control | [4] 91 % of control

CC12CCC(=O)C=C1CCC1C2CCC2(C)C1CCC2(O)C#CCN(CCCl)CCCl (stereo not drawn)
inactive: dose: 100.0 mg/kg/injection, schedule: Q01DX001 (sc), vehicle: steriod suspending solution 96 % of control | dose: 200.0 mg/kg/injection, schedule: Q01DX001 (sc), vehicle: steriod suspending solution 104 % of control | dose: 400.0 mg/kg/injection, schedule: Q01DX001 (sc), vehicle: steriod suspending solution 98 % of control

O=C(NC1CC1(c1ccccc1)c1ccccc1)NC1CC1(c1ccccc1)c1ccccc1 (stereo not drawn)
inactive: dose: 300.0 mg/kg/injection, schedule: Q01DX001 (ip), vehicle: other 86 % of control

CNN=C(C)C
inactive: dose: 12.5 mg/kg/injection, schedule: Q01DX001 (ip), vehicle: saline 94 % of control | dose: 12.5 mg/kg/injection, schedule: Q01DX009 (ip), vehicle: saline 105 % of control | dose: 12.5 mg/kg/injection, schedule: Q04DX003 (ip), vehicle: saline 96 % of control | dose: 25.0 mg/kg/injection, schedule: Q01DX001 (ip), vehicle: saline 94 % of control | dose: 25.0 mg/kg/injection, schedule: Q01DX009 (ip), vehicle: saline 100 % of control | dose: 25.0 mg/kg/injection, schedule: Q04DX003 (ip), vehicle: saline 98 % of control | dose: 50.0 mg/kg/injection, schedule: Q01DX001 (ip), vehicle: saline 97 % of control | dose: 50.0 mg/kg/injection, schedule: Q04DX003 (ip), vehicle: saline 98 % of control

Nc1ccc2cc(S(=O)(=O)O)cc(S(=O)(=O)O)c2c1 (tested in a mixture with another compound)
inactive: dose: 80.0 mg/kg/injection, schedule: Q01DX Z (ip), vehicle: saline 97 % of control | dose: 170.0 mg/kg/injection, schedule: Q01DX Z (ip), vehicle: saline 96 % of control

C[N+]1(C)CCS(=O)(=O)CC1
inactive: [5] 104 % of control | [6] 110 % of control

O=C(Nc1ccccc1Br)c1ccc(Cl)cc1Cl
inactive: dose: 75.0 mg/kg/injection, schedule: Q01DX009 (ip), vehicle: Klucel (hydroxypropylcellulose) (HPC) 96 % of control | [5] 93 % of control | dose: 150.0 mg/kg/injection, schedule: Q01DX009 (ip), vehicle: Klucel (hydroxypropylcellulose) (HPC) 96 % of control | [6] 107 % of control | dose: 300.0 mg/kg/injection, schedule: Q01DX009 (ip), vehicle: Klucel (hydroxypropylcellulose) (HPC) 100 % of control | [7] 97 % of control

Cc1c(C)c(C)c(CN2CC(=O)c3ccccc3C2=O)c(C)c1C
inactive: [5] 89 % of control | [6] 104 % of control | [7] 89 % of control

CCC(=O)CC1CCCC(CC(=O)CC)N1C (stereo not drawn)
inactive: dose: 9.5 mg/kg/injection, schedule: Q01DX001 (ip), vehicle: saline 96 % of control | dose: 19.0 mg/kg/injection, schedule: Q01DX001 (ip), vehicle: saline 104 % of control | dose: 38.0 mg/kg/injection, schedule: Q01DX001 (ip), vehicle: saline 102 % of control

CCC[CH2][Sn]([CH2]CCC)([CH2]CCC)[N]=C=S
inactive: dose: 0.39 mg/kg/injection, schedule: Q01DX001 (ip), vehicle: saline with Tween-80 89 % of control | dose: 0.78 mg/kg/injection, schedule: Q01DX001 (ip), vehicle: saline with Tween-80 93 % of control | dose: 1.56 mg/kg/injection, schedule: Q01DX001 (ip), vehicle: saline with Tween-80 105 % of control

CC1CC(OC(=O)CCN2CC2)CC(C)(C)C1 (stereo not drawn)
inactive: dose: 2.5 mg/kg/injection, schedule: Q01DX009 (ip), vehicle: Klucel (hydroxypropylcellulose) (HPC) 98 % of control | dose: 5.0 mg/kg/injection, schedule: Q01DX009 (ip), vehicle: Klucel (hydroxypropylcellulose) (HPC) 101 % of control | dose: 20.0 mg/kg/injection, schedule: Q01DX009 (ip), vehicle: Klucel (hydroxypropylcellulose) (HPC) 113 % of control | dose: 20.0 mg/kg/injection, schedule: Q04DX003 (ip), vehicle: Klucel (hydroxypropylcellulose) (HPC) 101 % of control | dose: 40.0 mg/kg/injection, schedule: Q01DX009 (ip), vehicle: Klucel (hydroxypropylcellulose) (HPC) 107 % of control | dose: 40.0 mg/kg/injection, schedule: Q04DX003 (ip), vehicle: Klucel (hydroxypropylcellulose) (HPC) 97 % of control | dose: 80.0 mg/kg/injection, schedule: Q04DX003 (ip), vehicle: Klucel (hydroxypropylcellulose) (HPC) 106 % of control

CCOC(=O)c1cnc(SC)nc1Nc1ccccc1OC
inactive: [8] 90 % of control | dose: 200.0 mg/kg/injection, schedule: Q04DX003 (ip), vehicle: Klucel (hydroxypropylcellulose) (HPC) 92 % of control | dose: 400.0 mg/kg/injection, schedule: Q04DX003 (ip), vehicle: Klucel (hydroxypropylcellulose) (HPC) 87 % of control

N/N=C(/CC1C(=O)Nc2ccccc21)c1ccccc1 (stereo not drawn)
inactive: [5] 94 % of control | [6] 108 % of control | [7] 91 % of control

OC(CCN1CCCCC1)(c1ccccc1)C1CCCC1 (stereo not drawn)
inactive: [1] 114 % of control | [2] 100 % of control | [3] 94 % of control | dose: 25.0 mg/kg/injection, schedule: Q04DX003 (ip), vehicle: Klucel (hydroxypropylcellulose) (HPC) 100 % of control | [4] 97 % of control | dose: 50.0 mg/kg/injection, schedule: Q04DX003 (ip), vehicle: Klucel (hydroxypropylcellulose) (HPC) 96 % of control | [9] 97 % of control | [8] 96 % of control

CCC(=O)C1CCCCN1 (stereo not drawn)
inactive: dose: 25.0 mg/kg/injection, schedule: Q04DX002 (ip), vehicle: saline 94 % of control | dose: 50.0 mg/kg/injection, schedule: Q04DX002 (ip), vehicle: saline 94 % of control

CCOC(=O)/C(O)=C/c1cnc2ccccc2n1
inactive: [4] 94 % of control | [9] 91 % of control | dose: 200.0 mg/kg/injection, schedule: Q01DX009 (ip), vehicle: Klucel (hydroxypropylcellulose) (HPC) 94 % of control

Cc1cnc(Br)c(Br)c1
inactive: dose: 100.0 mg/kg/injection, schedule: Q04DX003 (ip), vehicle: saline with Tween-80 102 % of control | dose: 200.0 mg/kg/injection, schedule: Q04DX003 (ip), vehicle: saline with Tween-80 100 % of control | dose: 400.0 mg/kg/injection, schedule: Q04DX003 (ip), vehicle: saline with Tween-80 102 % of control

Reference: PubChem BioAssay AID248 (DTP/NCI, 2004)
